# Measurements as given in publication PMC11685355, “Solid lipid nanoparticles for increased oral bioavailability of acalabrutinib in chronic lymphocytic leukaemia” (Discover Nano, 2024).
# Where two headings read alike, the source gives them in different places.
# Tests used:
# [1] = Saturation solubility of ACP in buffers with 0.5% w/v SDS; type: physicochemical; settings: buffer systems with 0.5% w/v SDS; pH 4.5; 6.8; and 7.4 in the presence of 0.5% w/v SDS
# Excerpt: The inherent hydrophobicity of ACP results in a solubility profile that is dependent on pH. […] It is very important to maintain sink condition during the in vitro dissolution study of any drug product. To maintain sink condition in the in vitro dissolution studies of hydrophobic drugs, various strategies can be employed, including, addition of surfactant; maintaining large volumes of dissolution media; addition of co-solvents; and use of a different dissolution apparatus like a flow through cell etc.. Of all the above strategies, addition of surfactants (either ionic or non-ionic) is the most commonly employed strategy. SDS, an anionic surfactant, is used to improve the wettability and saturation solubility of hydrophobic drugs in aqueous media. Researchers have used SDS in the range of 0.2 to 20% w/v to maintain the sink condition in the in vitro dissolution studies of formulations containing hydrophobic molecules. Thus, in order to achieve a sink condition, 0.5% w/v SDS was added in buffer systems having a pH of 4.5 and higher. […] Based on the above criteria, we have determined the minimum volume of pH 4.5, pH 6.8 and pH 7.4 (containing 0.5% w/v SDS) required to dissolve the entire drug dose administered in the formulation to be at least 130 mL.
# [2] = Solubility of ACP in surfactant solutions; type: physicochemical; settings: aqueous with cosolvent or surfactant or cyclodextrin
# Experimental: Surfactants are primarily chosen on the basis of two criteria: firstly, the affinity of ACP towards the aqueous solution in the presence of the surfactant; and secondly, their capacity to form a stable emulsion when the solid lipid is combined with the aqueous phase. […] Further, on the basis of the solubility of ACP in various surfactants, separate placebo batches of SLNs were prepared using the selected surfactant(s), in order to assess their ability to stabilize the SLNs by evaluating the particle size via dynamic light scattering.
# [3] = Solubility of ACP in molten solid lipids; type: physicochemical
# Experimental: The solid lipids were screened on the basis of biocompatibility and visual evaluation of the solubility of ACP in the lipids. Solid lipids such as GB (Compritol® 888 ATO), glyceryl di-stearate (Precirol ATO 5), glyceryl trimyristate (Dynasan 114), stearic acid, SP (Kolliwax® S) and cetyl palmitate were selected for solubility studies, as they were reported to be biocompatible. In the solubility studies, approximately 200 mg of each lipid was weighed separately and melted by heating to 5–10 °C above its corresponding melting point using a magnetic stirrer equipped with a temperature controlling program. ACP was added in small amounts to each lipid (in molten state), incrementally, up to a maximum of 100 mg under continuous stirring (150–200 rpm) while maintaining the temperature (5–10 °C above its corresponding melting point) until some amount of ACP was present in undissolved / powder form in the lipid. Further, the lipids in which the drug has similar solubility, the lipid solutions (ACP dissolved in lipid) were maintained at the same temperature for 60 min to observed for any precipitation of the drug.
# [4] = cited from earlier work
# [5] = In vitro dissolution studies, USP type II apparatus; type: physicochemical; settings: pH 6.8, 0.5% w/v SDS, within 2 h
# Experimental: Dissolution studies were performed using USP type II dissolution apparatus under conditions simulating the fluids in different parts of the gastrointestinal tract (200 mL of pH 1.2 ± 0.02; 4.5 ± 0.02 buffer; and 900 mL of pH 6.8 ± 0.02 buffer) and blood/plasma (500 mL of pH 7.4 ± 0.02 buffer). […] The temperature was maintained at 37 ± 2 °C with a constant stirring rate of 75 rpm. At predetermined time intervals, 1000 μL samples were withdrawn from the dissolution media via a syringe and replenished with the same volume of fresh media (to retain the sink condition). The samples were immediately centrifuged at 15,373 × g in an ultracentrifuge. The supernatant was collected, diluted with mobile phase (methanol with 10 mM (pH 3.5) ammonium acetate buffer at a ratio of 52:48), and analysed via an HPLC–UV-based analytical method (mentioned in Sect. 3.2). The dissolution data obtained were contoured into different mathematical models (zero order; first order; and Higuchi square root kinetics) to determine the kinetics of drug release. The best fit model was analysed on the basis of the regression coefficient.
# [6] = cited from earlier work; remark: listed apart in the source
# [7] = design: method as in doi:10.1002/sscp.202400110; settings: Wistar rats; cited from earlier work
compound,measurement,setting,value
"CC#CC(=O)N1CCC[C@H]1c1nc(-c2ccc(C(=O)Nc3ccccn3)cc2)c2c(N)nccn12 [ACP, Acalabrutinib]",solubility,[1],≥ 770 µg/mL
same,solubility,"[2]; aqueous surfactant solution (Gelucire 44/14), Gelucire 44/14 0.15 % w/v, read-out: ACP solubility",1.36 µg/mL
same,solubility,"[2]; aqueous surfactant solution (Gelucire 44/14), Gelucire 44/14 2 % w/v, read-out: ACP solubility",2.27 µg/mL
same,solubility,"[2]; aqueous surfactant solution (Gelucire 48/16), Gelucire 48/16 0.15 % w/v, read-out: ACP solubility",1.18 µg/mL
same,solubility,"[2]; aqueous surfactant solution (Gelucire 48/16), Gelucire 48/16 2 % w/v, read-out: ACP solubility",2.96 µg/mL
same,solubility,"[2]; aqueous surfactant solution (PVP K30), Polyvinyl Pyrrolidone (PVP)- K30 0.15 % w/v, read-out: ACP solubility",0.748 µg/mL
same,solubility,"[2]; aqueous surfactant solution (PVP K30), Polyvinyl Pyrrolidone (PVP)- K30 2 % w/v, read-out: ACP solubility",2.27 µg/mL
same,solubility,"[2]; aqueous surfactant solution (Tween 80), 1% w/v solution of T80, read-out: solubility of ACP",< 0.1 µg/mL
same,solubility,"[2]; aqueous surfactant solution (Tween 80), Tween 80 (T80) 0.15 % w/v, read-out: ACP solubility",0.0523 µg/mL
same,solubility,"[2]; aqueous surfactant solution (Tween 80), Tween 80 (T80) 2 % w/v, read-out: ACP solubility",0.194 µg/mL
same,solubility,"[2]; aqueous surfactant solution (poloxamer 188), 1% w/v solution of P188, read-out: solubility of ACP",< 0.1 µg/mL
same,solubility,"[2]; aqueous surfactant solution (poloxamer 188), Poloxamer 188 (P188) 0.15 % w/v, read-out: ACP solubility",0.0075 µg/mL
same,solubility,"[2]; aqueous surfactant solution (poloxamer 188), Poloxamer 188 (P188) 2 % w/v, read-out: ACP solubility",0.0202 µg/mL
same,solubility,"[2]; aqueous surfactant solution (poloxamer 407), Poloxamer 407 (P407) 0.15 % w/v, read-out: ACP solubility",0.209 µg/mL
same,solubility,"[2]; aqueous surfactant solution (poloxamer 407), Poloxamer 407 (P407) 2 % w/v, read-out: ACP solubility",1.74 µg/mL
same,solubility,"[2]; aqueous surfactant solution (polyvinyl alcohol), Polyvinyl Alcohol (PVA) 0.15 % w/v, read-out: ACP solubility",0.0137 µg/mL
same,solubility,"[2]; aqueous surfactant solution (polyvinyl alcohol), Polyvinyl Alcohol (PVA) 2 % w/v, read-out: ACP solubility",0.109 µg/mL
same,solubility of ACP in lipid,[3]; in 200 mg of GB (glyceryl di-behenate),~ 40 mg
same,solubility of ACP in lipid,[3]; in 200 mg of SP (stearyl palmitate),> 80 mg
same,solubility of ACP,[4]; 0.01 N HCl (pH = 2),3730 µg/mL
same,solubility of ACP,[4]; 0.1 N HCl (pH = 1),29200 µg/mL
same,solubility of ACP,[4]; acetate or citrate buffer (pH = 4.5),159 µg/mL
same,maximum basic pKa,[4],5.77
same,solubility above pH 6,[4],practically insoluble
same,ACP dissolved,[5],more than 80%
same,excreted in faeces,[6],84%
same,excreted in urine,[6],12%
same,"unchanged ACP, share of the total amount eliminated",[6],less than 2%
same,absolute oral bioavailability,[7],22.83% ± 5.015%
